Results taken from patent US11414387B2, “Oxoacridinyl acetic acid derivatives and methods of use” (Stingthera, Inc., priority 2017, dated 2022).

Columns and labels:
hSTING-WT = hSTING-WT (Homo sapiens (Human), UniProt Q86WV6, H232R); assay: Radiometric filtration binding competition assay, hSTING-WT
hSTING-R232 = hSTING-R232 (Homo sapiens (Human), UniProt Q86WV6, H232R); assay: STING differential scanning fluorimetry (DSF) assay, WT human STING; settings: WT (R232) human STING aa140-379, net shift in melting temperature
Sequence of hSTING-R232 (Q86WV6 140-379 H232R): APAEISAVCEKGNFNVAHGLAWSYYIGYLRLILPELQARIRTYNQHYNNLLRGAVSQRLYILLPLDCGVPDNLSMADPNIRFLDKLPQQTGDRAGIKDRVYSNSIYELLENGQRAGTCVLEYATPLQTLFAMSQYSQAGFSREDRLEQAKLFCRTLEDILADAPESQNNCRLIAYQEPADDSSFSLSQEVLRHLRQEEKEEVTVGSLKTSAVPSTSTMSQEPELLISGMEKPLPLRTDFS
Description: A STING DSF assay was performed to determine protein thermostability shift in response to small molecule ligand binding. A STING thermostability shift assay based on differential scanning fluorimetry was used to measure (1) the net shift in melting temperature (ΔTm)between the apo and ligand-bound states of the STING protein and (2) the concentration of the thermal denaturation transition (EC50) as a surrogate measure of binding affinity (K). […] Protein in assay buffer was transferred to a 384 well plate and incubated with the hydrophobic fluorescent dye SYBR Orange. A temperature ramp was applied to the plate and the resulting dye fluorescence was plotted as a function of temperature. The first derivative of this function (dF/dT) was then used to extrapolate the melting temperature of the protein at various concentrations of compound and determine the thermal denaturation profile of a protein/compound complex.
• 1. Protein construct (affinity tag removal vs SUMO-fusion construct) • 2. Protein concentration • 3. Dye concentration • 4. Buffer • 5. Thermal ramp velocity • 6. DMSO tolerance • 7. Compound titration parameters • 8. […] 5 μM purified Target STING Protein • 3. 8 μM Sypro Orange Dye • 4. Buffer: 100 mM NaCl, 30 mM HEPES, pH 7.5 • 5. Thermal Ramp: 0.5° C./min • 6. <1% DMSO • 7. 11 point, 2 fold dilution, duplicate, 300 μM high concentrations • 8.

STING protein = STING protein (Homo sapiens (Human), UniProt Q86WV6, H232R); assay: Cell based reporter assay of IRF activation (IRF-luciferase), THP1-dual-KI R232; settings: read-out: THP1-dual-KI R232_IRF(Luciferase)_Activity Maximum measured (%)
Sequence of STING protein (Q86WV6 whole entry H232R): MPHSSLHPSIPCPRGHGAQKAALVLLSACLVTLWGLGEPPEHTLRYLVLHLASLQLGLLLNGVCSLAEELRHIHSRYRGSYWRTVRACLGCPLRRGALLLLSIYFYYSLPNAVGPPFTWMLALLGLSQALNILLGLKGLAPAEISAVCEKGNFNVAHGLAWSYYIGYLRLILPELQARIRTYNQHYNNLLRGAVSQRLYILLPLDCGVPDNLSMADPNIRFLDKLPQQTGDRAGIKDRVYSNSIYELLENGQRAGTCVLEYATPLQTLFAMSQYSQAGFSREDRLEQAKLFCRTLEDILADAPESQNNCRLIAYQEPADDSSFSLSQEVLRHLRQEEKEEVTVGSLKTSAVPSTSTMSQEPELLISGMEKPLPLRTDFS

Sequence of hSTING-WT (Q86WV6 140-379 H232R): as the sequence (Q86WV6 140-379 H232R) above

SMILES | IC50 (hSTING-WT) [µM] | WT_DSF_hSWAT Tm Shift (° C.) (hSTING-R232) | Emax (STING protein) [%]
COc1c(Cl)ccc2c(=O)c3ccc(-c4ccncc4)cc3n(CC(=O)O)c12 [Compound 278] | 20 to 100 | D (“D” > 7° C.) | > 50
CN(C)c1c(Cl)ccc2c(=O)c3ccccc3n(CC(=O)O)c12 [Compound 136] | 20 to 100 | D (“D” > 7° C.) | –
CCS(=O)(=O)NC(=O)Cn1c2cc(C)ccc2c(=O)c2ccc(Cl)c(OC)c21 [Compound 349] | > 300 | C (“C” = 2-7° C,) | > 50
CCCOc1c(Cl)ccc2c(=O)c3ccccc3n(CC(=O)O)c12 [Compound 284] | > 300 | C (“C” = 2-7° C,) | 5 to 25
O=C(O)Cn1c2cc(C3CCC(O)CC3)ccc2c(=O)c2ccc(Cl)c(Cl)c21 (centres unmarked) [Compound 264] | – | C (“C” = 2-7° C,) | 5 to 25
COc1c(Cl)ccc2c(=O)c3ccc(S(C)(=O)=O)cc3n(CC(=O)O)c12 [Compound 249] | > 300 | B (“B” = 0-2° C.) | –
CCOc1c(Cl)ccc2c(=O)c3ccc(C)cc3n(CC(=O)O)c12 [Compound 282] | 20 to 100 | D (“D” > 7° C.) | > 50
O=C(O)Cn1c2cc(-c3ccco3)ccc2c(=O)c2ccc(Cl)c(Cl)c21 [Compound 186] | 20 to 100 | C (“C” = 2-7° C,) | 25 to 50
C[C@@H]1CCCN1c1ccc2c(=O)c3ccc(Cl)c(Br)c3n(CC(=O)O)c2c1 [Compound 203] | 20 to 100 | C (“C” = 2-7° C,) | > 50
C[C@@H](C(=O)O)n1c2ccccc2c(=O)c2ccc(Cl)c(Cl)c21 [Compound 100] | > 300 | A (“A” < 0° C.) | –
CC(C)Sc1ccc2c(=O)c3ccc(Cl)c(Cl)c3n(CC(=O)O)c2c1 [Compound 149] | 100 to 300 | C (“C” = 2-7° C,) | < 5
O=C(O)Cn1c2cc(C3CCC(O)CC3)ccc2c(=O)c2ccc(Cl)c(Cl)c21 (centres unmarked) [Compound 214] | 20 to 100 | D (“D” > 7° C.) | –
CONC(=O)Cn1c2cc(C)ccc2c(=O)c2ccc(Cl)c(OC)c21 [Compound 339] | > 300 | B (“B” = 0-2° C.) | 25 to 50
CC(C)c1ccc2c(c1)c1ccc(Cl)c(Cl)c1n2CC(=O)O [Compound 240] | 20 to 100 | – | –
CCOc1c(Cl)ccc2c(=O)c3ccc(C(C)(C)C)cc3n(CC(=O)O)c12 [Compound 224] | 20 to 100 | – | –
COc1c(Cl)ccc2c(=O)c3ccc(SC4CCCCC4)cc3n(CC(=O)O)c12 [Compound 233] | < 20 | D (“D” > 7° C.) | > 50
O=C(O)Cn1c2ccccc2c(=O)c2ccc(Cl)c(OC3CCC3)c21 [Compound 247] | 100 to 300 | A (“A” < 0° C.) | –
O=C(O)Cn1c2cc(C(F)F)ccc2c(=O)c2ccc(Cl)c(Cl)c21 [Compound 166] | > 300 | B (“B” = 0-2° C.) | –
COc1c(Cl)ccc2c(=O)c3ccc(C(C)C)cc3n(CC(=O)O)c12 [Compound 245] | 20 to 100 | D (“D” > 7° C.) | –
O=C(O)Cn1c2ccccc2c(=O)c2ccc(Cl)c(-c3cccnc3)c21 [Compound 334] | > 300 | C (“C” = 2-7° C,) | < 5
O=C(O)Cn1c2cc(-c3nccs3)ccc2c(=O)c2ccc(Cl)c(Cl)c21 [Compound 187] | 100 to 300 | B (“B” = 0-2° C.) | –
O=C(O)CCCn1c2ccccc2c(=O)c2ccc(Cl)c(Cl)c21 [Compound 205] | > 300 | A (“A” < 0° C.) | –
CC(C)Nc1ccc2c(=O)c3ccc(Cl)c(-c4ccccc4)c3n(CC(=O)O)c2c1 [Compound 336] | < 20 | D (“D” > 7° C.) | > 50
O=C(O)Cn1c2cc(-c3cccnc3)ccc2c(=O)c2ccc(Cl)c(Cl)c21 [Compound 190] | > 300 | C (“C” = 2-7° C,) | –

SMILES | IC50 (hSTING-WT) [µM] | WT_DSF_hSWAT Tm Shift (° C.) (hSTING-R232) | Emax (STING protein) [%]
COc1c(Cl)ccc2c(=O)c3ccc(Nc4ccc(O)cc4)cc3n(CC(=O)O)c12 [Compound 236] | < 20 | D (“D” > 7° C.) | –
C[C@H](C(=O)O)n1c2ccccc2c(=O)c2ccc(Cl)c(Cl)c21 [Compound 101] | > 300 | A (“A” < 0° C.) | –
CNc1ccc2c(=O)c3ccc(Cl)c(OC)c3n(CC(=O)O)c2c1 [Compound 299] | 20 to 100 | C (“C” = 2-7° C,) | > 50
COc1ccc2c(=O)c3ccccc3n(CC(=O)O)c2c1OC [Compound 265] | > 300 | B (“B” = 0-2° C.) | < 5
O=C(Cn1c2ccccc2c(=O)c2ccc(Cl)c(Cl)c21)NO [Compound 353] | 100 to 300 | A (“A” < 0° C.) | –
Cc1ccc2c(=O)c3ccc(Cl)c(Cl)c3n(CC(=O)O)c2c1C [Compound 134] | 20 to 100 | A (“A” < 0° C.) | < 5
C[C@H]1CCCN1c1ccc2c(=O)c3ccc(Cl)c(Br)c3n(CC(=O)O)c2c1 [Compound 202] | 20 to 100 | C (“C” = 2-7° C,) | 5 to 25
CC(C)c1ccc2c3ccc(Cl)c(Cl)c3n(CC(=O)O)c2c1 [Compound 210] | 20 to 100 | A (“A” < 0° C.) | < 5
COc1c(Cl)ccc2c(=O)c3ccc(C)cc3n(CC(=O)NS(C)(=O)=O)c12 [Compound 347] | 100 to 300 | C (“C” = 2-7° C,) | > 50
COc1c(Cl)ccc2c(=O)c3ccc(C4CCOCC4)cc3n(CC(=O)O)c12 [Compound 255] | 20 to 100 | C (“C” = 2-7° C,) | –
O=C(O)Cn1c2ccccc2c2ccc(Cl)c(Cl)c21 [Compound 209] | > 300 | A (“A” < 0° C.) | –
CC(C)Oc1c(Cl)ccc2c(=O)c3ccccc3n(CC(=O)O)c12 [Compound 246] | 100 to 300 | C (“C” = 2-7° C,) | –
COc1c(Cl)ccc2c(=O)c3ccc(C4=CCCOC4)cc3n(CC(=O)O)c12 [Compound 252] | 20 to 100 | D (“D” > 7° C.) | –
CC(C)(O)c1ccc2c(=O)c3ccc(Cl)c(Cl)c3n(CC(=O)O)c2c1 [Compound 168] | 100 to 300 | A (“A” < 0° C.) | –
O=C(O)Cn1c2cc([C@H]3CC[C@H](O)CC3)ccc2c(=O)c2ccc(Cl)c(Cl)c21 [Compound 264] | < 20 | – | –
CSc1ccc2c(=O)c3ccc(Cl)c(Br)c3n(CC(=O)O)c2c1 [Compound 196] | 20 to 100 | D (“D” > 7° C.) | –
O=C(O)Cn1c2cc(C(O)(C(F)(F)F)C(F)(F)F)ccc2c(=O)c2ccc(Cl)c(Cl)c21 [Compound 167] | > 300 | A (“A” < 0° C.) | –
O=C(O)Cn1c2cc(-c3cc[nH]n3)ccc2c(=O)c2ccc(Cl)c(Cl)c21 [Compound 182] | 100 to 300 | C (“C” = 2-7° C,) | –
CSc1c(Cl)ccc2c(=O)c3ccc(Nc4ccc(F)cc4)cc3n(CC(=O)O)c12 [Compound 259] | < 20 | D (“D” > 7° C.) | –
CC(O)c1ccc2c(=O)c3ccc(Cl)c(Cl)c3n(CC(=O)O)c2c1 (centres unmarked) [Compound 191] | > 300 | B (“B” = 0-2° C.) | –
Cn1ccc(-c2ccc3c(=O)c4ccc(Cl)c(Cl)c4n(CC(=O)O)c3c2)n1 [Compound 184] | > 300 | C (“C” = 2-7° C,) | –
Cn1ccnc1-c1ccc2c(=O)c3ccc(Cl)c(Cl)c3n(CC(=O)O)c2c1 [Compound 188] | > 300 | A (“A” < 0° C.) | –
CC(C)c1ccc2c(=O)c3ccc(I)c(Cl)c3n(CC(=O)O)c2c1 [Compound 195] | > 300 | C (“C” = 2-7° C,) | –
COc1c(Cl)ccc2c(=O)c3cc(F)c(C(C)C)cc3n(CC(=O)O)c12 [Compound 248] | > 300 | B (“B” = 0-2° C.) | –
